This passage reports DC50 and Emax results from ChEMBL document CHEMBL4706763, “Targeting IRAK1 for Degradation with PROTACs” (ACS Med Chem Lett, 2021).

In assay [1] the target is T1, von Hippel-Lindau disease tumor suppressor/Interleukin-1 receptor-associated kinase 1 (Homo sapiens, UniProt P51617+P40337). The assay is described as follows: Protac activity at VHL/IRAK1 in HEK293T cells assessed as induction of IRAK1 degradation measured after 24 hrs by Western blot analysis. Type of assay: cell-based. On the technique in general: A western blot detects proteins with antibodies after separation by electrophoresis.
Target sequence in this assay (P51617 whole entry): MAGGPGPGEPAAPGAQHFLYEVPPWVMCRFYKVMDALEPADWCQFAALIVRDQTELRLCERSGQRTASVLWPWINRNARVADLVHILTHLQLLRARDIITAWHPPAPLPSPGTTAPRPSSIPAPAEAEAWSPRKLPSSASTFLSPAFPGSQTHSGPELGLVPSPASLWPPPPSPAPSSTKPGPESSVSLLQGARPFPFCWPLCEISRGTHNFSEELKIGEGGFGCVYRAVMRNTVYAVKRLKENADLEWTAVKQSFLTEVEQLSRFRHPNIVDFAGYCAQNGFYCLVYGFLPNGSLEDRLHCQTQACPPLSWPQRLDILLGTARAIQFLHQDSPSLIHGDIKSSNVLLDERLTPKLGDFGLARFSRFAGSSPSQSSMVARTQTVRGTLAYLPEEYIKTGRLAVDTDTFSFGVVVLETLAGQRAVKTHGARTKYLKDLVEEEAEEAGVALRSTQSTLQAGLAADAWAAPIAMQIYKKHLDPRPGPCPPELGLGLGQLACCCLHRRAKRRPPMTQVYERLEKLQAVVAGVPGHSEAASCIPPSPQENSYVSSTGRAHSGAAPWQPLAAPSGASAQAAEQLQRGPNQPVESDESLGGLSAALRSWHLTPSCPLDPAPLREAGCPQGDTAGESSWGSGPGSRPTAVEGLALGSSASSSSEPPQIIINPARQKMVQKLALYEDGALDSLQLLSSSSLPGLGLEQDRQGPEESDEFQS
Target sequence in this assay (P40337 whole entry): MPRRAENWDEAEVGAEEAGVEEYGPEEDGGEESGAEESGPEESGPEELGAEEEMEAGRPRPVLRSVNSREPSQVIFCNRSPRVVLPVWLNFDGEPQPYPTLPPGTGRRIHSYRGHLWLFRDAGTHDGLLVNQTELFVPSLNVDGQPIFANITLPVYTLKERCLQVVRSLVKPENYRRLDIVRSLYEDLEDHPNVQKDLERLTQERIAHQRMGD

For assay [2], the target named is T1, von Hippel-Lindau disease tumor suppressor/Interleukin-1 receptor-associated kinase 1. The assay can be described thus: Protac activity at VHL/IRAK1 in HEK293T cells assessed as induction of IRAK1 degradation at 10 uM measured after 24 hrs by Western blot analysis relative to control. The format is cell-based.
Target sequence in this assay (P40337 whole entry, looked up): as the sequence (P40337 whole entry) above
Target sequence in this assay (P51617 whole entry, looked up): as the sequence (P51617 whole entry) above

What is called DC50 is the concentration at which degradation of the target reaches its halfway point. The Emax is the greatest response seen or fitted, relative to the assay's reference. In the case of `COc1cc(N2CCN(C(=O)OCC(=O)N[C@H](C(=O)N3C[C@H](O)C[C@H]3C(=O)NCc3ccc(-c4scnc4C)cc3)C(C)(C)C)CC2)ccc1NC(=O)c1cccc(-c2ccn[nH]2)n1`, in assay [1], the DC50 was 16 nM. For the same compound, the Emax in assay [2] was found to be 97%.
In the same order, the values of `COc1cc(N2CCC(OCC(=O)N[C@H](C(=O)N3C[C@H](O)C[C@H]3C(=O)N[C@@H](C)c3ccc(-c4scnc4C)cc3)C(C)(C)C)CC2)ccc1NC(=O)c1cccc(-c2ccn[nH]2)n1` are 3 nM and 96%.
Regarding `COc1cc(N2CC[C@@H](OCC(=O)N[C@H](C(=O)N3C[C@H](O)C[C@H]3C(=O)N[C@@H](C)c3ccc(-c4scnc4C)cc3)C(C)(C)C)[C@H](C)C2)ccc1NC(=O)c1cccc(-c2ccn[nH]2)n1`, the DC50 in assay [1] was 21 nM. Also, the Emax in assay [2] was 96%.
As to `COc1cc(N2CC[C@H](OCC(=O)N[C@H](C(=O)N3C[C@H](O)C[C@H]3C(=O)N[C@@H](C)c3ccc(-c4scnc4C)cc3)C(C)(C)C)[C@@H](C)C2)ccc1NC(=O)c1cccc(-c2ccn[nH]2)n1`, the Emax in assay [2] stood at 95%.
With `COc1cc(N2CCC(OCC(=O)N[C@H](C(=O)N3C[C@H](O)C[C@H]3C(=O)NCc3ccc(-c4scnc4C)cc3)C(C)(C)C)CC2)ccc1NC(=O)c1cccc(-c2ccn[nH]2)n1`, the DC50 in assay [1] came to 16 nM. Besides, the Emax in assay [2] stood at 95%.
Turning to `COc1cc(N2CCN(C(=O)OCC(=O)N[C@H](C(=O)N3C[C@H](O)C[C@H]3C(=O)N[C@@H](C)c3ccc(-c4scnc4C)cc3)C(C)(C)C)CC2)ccc1NC(=O)c1cccc(-c2ccn[nH]2)n1`, the DC50 in assay [1] was found to be 9 nM. Further, the Emax in assay [2] stood at 90%.
The corresponding values for `COc1cc(N2CC[C@@H](OCC(=O)N[C@H](C(=O)N3C[C@H](O)C[C@H]3C(=O)N[C@@H](C)c3ccc(-c4scnc4C)cc3)C(C)(C)C)C[C@@H]2C)ccc1NC(=O)c1cccc(-c2ccn[nH]2)n1` are 13 nM and 94%.
Take `COc1cc(N2CCC(OCC(=O)N[C@H](C(=O)N3C[C@H](O)C[C@H]3C(=O)NCc3ccc(-c4scnc4C)cc3F)C(C)(C)C)CC2)ccc1NC(=O)c1cccc(-c2ccn[nH]2)n1`: in assay [1], the DC50 came to 13 nM. The Emax in assay [2] came to 96%.
